Experimental findings from patent US8048879B2, “Substituted 4,5,6,7-tetrahydro-isoxazolo[4,5-c]pyridine compounds and use thereof for producing medicaments” (Gruenenthal GmbH, priority 2005, dated 2011) are described below.

Read-outs that look alike come from different tables or passages of the source.

One assay addresses T1, 5-HT transporter (Rattus norvegicus, UniProt P31652).
T1 construct: from tissue; host or cells: rat brain (medulla and pons), synaptosomes, P2 fraction
In words: 5-HT uptake inhibition, synaptosomes from rat brain (medulla and pons). The class given is biochemical. Put shortly: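 Freshly isolated rat brain synaptosomes (P2 fraction): hypothalamus for NA uptake, medulla/pons for 5-HT uptake. Uptake of [3H]-NA (7.5 min) or [3H]-5-HT (5 min) at room temperature under O2, stopped by filtration over GF/B. Retained radioactivity counted by scintillation.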

For the next assay, the target named is T2, NA transporter (Rattus norvegicus, UniProt Q9WTR4).
T2 construct: from tissue; host or cells: rat brain (hypothalamus), synaptosomes, P2 fraction
T2 sequence (Q9WTR4 1-597): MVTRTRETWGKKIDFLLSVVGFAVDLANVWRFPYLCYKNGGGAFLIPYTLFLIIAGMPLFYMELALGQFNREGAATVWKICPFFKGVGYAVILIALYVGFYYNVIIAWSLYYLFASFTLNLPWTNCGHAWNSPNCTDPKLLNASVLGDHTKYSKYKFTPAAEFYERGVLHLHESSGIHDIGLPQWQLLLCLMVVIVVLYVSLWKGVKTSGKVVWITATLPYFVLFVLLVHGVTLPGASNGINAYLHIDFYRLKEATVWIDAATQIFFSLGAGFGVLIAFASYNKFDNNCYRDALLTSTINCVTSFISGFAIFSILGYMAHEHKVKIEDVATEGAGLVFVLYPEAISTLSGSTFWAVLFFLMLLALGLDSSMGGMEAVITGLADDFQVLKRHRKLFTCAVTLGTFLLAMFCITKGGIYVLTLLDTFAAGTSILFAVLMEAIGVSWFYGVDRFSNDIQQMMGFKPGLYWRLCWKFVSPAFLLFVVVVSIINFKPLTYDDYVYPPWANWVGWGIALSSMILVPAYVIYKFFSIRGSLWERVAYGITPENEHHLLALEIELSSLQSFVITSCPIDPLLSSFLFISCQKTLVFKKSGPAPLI
The experiment in a line: Noradrenalin (NA) uptake inhibition, synaptosomes from rat brain (hypothalamus). The class given is biochemical. The text has this: b) Method for Determining Noradrenalin and 5-HT Uptake Inhibition:
Synaptosomes from rat brain regions are freshly isolated for in vitro studies, as described in the publication “The isolation of nerve endings from brain” by E. G. Gray and V. P. Whittaker, J. Anatomy 96, pages 79-88, 1962. The corresponding literature description is hereby introduced as a reference and is deemed to be part of the disclosure.
The tissue (hypothalamus for the determination of noradrenalin uptake inhibition and medulla and pons for the determination of 5-HT uptake inhibition) is homogenised in ice-cooled 0.32 M sucrose (100 mg of tissue/1 mL) in a glass homogeniser with Teflon pestle using five complete up and down strokes at 840 revolutions/minute.
The homogenate is centrifuged at 4° C. for 10 minutes at 1000 g. After subsequent centrifugation at 17000 g for 55 minutes, the synaptosomes (P2 fraction) are obtained, which are resuspended in 0.32 M […] (0.5 mL/100 mg of original weight).
The particular uptake is measured in a 96-well microtitre plate. The volume is 250 μL and the incubation proceeds at room temperature (approx. 20-25° C.) under an O2 atmosphere.
The incubation time is 7.5 minutes for [^3H]-NA and 5 minutes for [^3H]-5-HT. The 96 samples are then filtered through a Unifilter GF/B® microtitre plate (Packard) and washed with 200 mL of incubated buffer using a “Brabdel MPXRI-96T Cell-Harvester”. The Unifilter GF/B plate is dried for 1 hour at 55° C. The plate is then sealed with a Back Seal® (Packard) and 35 μL of scintillation fluid are added per well (Ultima Gold®, Packard). After sealing with a top Seal® (Packard) and establishing an equilibrium (around 5 hours), radioactivity is determined in a “Trilux 1450 Microbeta” (Wallac).
The quantity of protein used in the above determination corresponds to the values known from the literature, as for example described in “Protein measurement with the folin phenol reagent”, Lowry et al., J. Biol. Chem., 193, 265-275, 1951.
A detailed description of the method may additionally be found in the literature, for example in M. Ch. Frink, H.-H. Hennies, W. Engelberger, M. Haurand and B. Wilffert (1996) Arzneim.-Forsch./Drug Res. 46 (III), 11, 1029-1036.
The following characteristics were determined for the NA or 5-HT transporter: […]

T1 sequence (P31652 whole entry): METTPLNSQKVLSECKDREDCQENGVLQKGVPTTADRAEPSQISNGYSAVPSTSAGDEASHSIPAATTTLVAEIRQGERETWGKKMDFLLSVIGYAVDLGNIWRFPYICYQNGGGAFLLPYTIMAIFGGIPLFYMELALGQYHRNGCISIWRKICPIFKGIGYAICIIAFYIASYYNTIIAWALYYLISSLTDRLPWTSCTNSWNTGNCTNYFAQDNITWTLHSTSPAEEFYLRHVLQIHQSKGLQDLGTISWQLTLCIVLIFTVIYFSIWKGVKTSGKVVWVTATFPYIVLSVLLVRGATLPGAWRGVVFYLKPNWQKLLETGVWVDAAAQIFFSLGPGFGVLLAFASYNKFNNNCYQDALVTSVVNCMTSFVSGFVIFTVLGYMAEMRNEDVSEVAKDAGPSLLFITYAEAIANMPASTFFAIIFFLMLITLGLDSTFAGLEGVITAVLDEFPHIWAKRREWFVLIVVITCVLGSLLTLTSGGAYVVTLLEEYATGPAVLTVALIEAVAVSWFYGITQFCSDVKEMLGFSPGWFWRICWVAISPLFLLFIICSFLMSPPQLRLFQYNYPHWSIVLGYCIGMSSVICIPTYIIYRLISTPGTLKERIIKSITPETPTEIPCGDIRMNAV

As to `CCOc1ccc(NC(=O)N2CCc3onc(C(=O)Nc4ccccc4)c3C2)cc1` [Example 13, 6,7-dihydro-4H-isoxazolo[4,5-c]pyridine-3,5-dicarboxylic acid 5-[(4-ethoxy-phenyl) amide] 3-phenyl amide], the “5-HT uptake (rat), 10 μM, % inhibition” value on 5-HT transporter came out at 48%. For the same compound, on NA transporter, the “NA Uptake (rat), 10 μM, % inhibition” value stood at 51%.
In general, inhibition refers to the relative decrease from the control value, in per cent. Low readings indicate a response near the control, high ones a response far below the control. On to `O=C(NC1CCN(Cc2ccccc2)C1)c1noc2c1CN(S(=O)(=O)c1ccc(OC(F)(F)F)cc1)CC2` (stereo not drawn) [Example 117, 5-(4-trifluoromethoxy-benzenesulfonyl)-4,5,6,7-tetrahydro-isoxazolo[4,5-c]pyridine-3-carboxylic acid (1-benzyl-pyrrolidin-3-yl)-amide], for which the inhibition at 10 µM on 5-HT transporter stood at 68%; at NA transporter, 75%.
For `O=C(NCCc1ccccc1)c1noc2c1CN(C(=O)Nc1cccc(F)c1)CC2` [Example 8, 6,7-dihydro-4H-isoxazolo[4,5-c]pyridine-3,5-dicarboxylic acid 5-[(3-fluorophenyl) amide] 3-(phenethyl amide)], the “5-HT uptake (rat), 10 μM, % inhibition” value on 5-HT transporter is on record as 54%. In addition, the “NA Uptake (rat), 10 μM, % inhibition” value on NA transporter is 66%.
Consider `Cc1ccc(S(=O)(=O)N2CCc3onc(C(=O)NCc4ccc(S(N)(=O)=O)cc4)c3C2)cc1` [Example 157, N-(4-sulfamoylbenzyl)-5-tosyl-4,5,6,7-tetrahydroisoxazolo[4,5-c]pyridine-3-carboxamide], for which, on 5-HT transporter (10 µM), the “5-HT uptake (rat), 10 μM, % inhibition” value is given as 15%. Testing at 10 µM against NA transporter gave an inhibition of 45%.
With `O=C(c1noc2c1CN(S(=O)(=O)c1cccc(C(F)(F)F)c1)CC2)N(CCc1ccccc1)Cc1ccccc1` [Example 68, 5-(3-trifluoromethyl-benzenesulfonyl)-4,5,6,7-tetrahydro-isoxazolo[4,5-c]pyridine-3-carboxylic acid benzyl-phenethyl amide], the results for the inhibition at 10 µM against 5-HT transporter and against NA transporter were 63% and 84%, respectively.
For `O=C(Nc1ccccc1)c1noc2c1CN(C(=O)c1ccccc1F)CC2` [Example 156, 5-(2-fluorobenzoyl)-N-phenyl-4,5,6,7-tetrahydroisoxazolo[4,5-c]pyridine-3-carboxamide] the same measures were 10% and 23%.
For `O=C(NC1CCN(Cc2ccc3ccccc3c2)C1)c1noc2c1CN(S(=O)(=O)c1ccccc1)CC2` (stereo not drawn) [Example 33, 5-benzenesulfonyl-4,5,6,7-tetrahydro-isoxazolo[4,5-c]pyridine-3-carboxylic acid (1-naphthalen-2-ylmethyl-pyrrolidin-3-yl) amide] the same measures were 74% and 88%.
For `O=C(NCc1ccccc1)c1noc2c1CN(C(=O)NCCc1ccccc1)CC2` [Example 10, 6,7-dihydro-4H-isoxazolo[4,5-c]pyridine-3,5-dicarboxylic acid 3-benzyl amide 5-(phenethyl amide)], the “5-HT uptake (rat), 10 μM, % inhibition” value at 5-HT transporter stood at 51%. Also, the “NA Uptake (rat), 10 μM, % inhibition” value on NA transporter turned out to be 42%.
Consider `Cl.O=C(c1noc2c1CN(S(=O)(=O)c1cccc3ccccc13)CC2)N1CCC(CCN2CCCC2)CC1` [Example 149, (5-(Naphthalene-1-ylsulfonyl)-4,5,6,7-tetrahydroisoxazolo[4,5-c]pyridin-3-yl)(4-(2-(pyrrolidin-1-yl)ethyl)piperidin-1-yl)methanone hydrochloride], for which the figures for the inhibition at 10 µM against 5-HT transporter and on NA transporter were 68% and 54%, respectively.
Compound `O=C(NC1CCN(Cc2ccc(C(F)(F)F)cc2)C1)c1noc2c1CN(S(=O)(=O)c1ccccc1)CC2` (stereo not drawn) [Example 103, 5-benzenesulfonyl-4,5,6,7-tetrahydro-isoxazolo[4,5-c]pyridine-3-carboxylic acid [1-(4-trifluoromethyl-benzyl)-pyrrolidin-3-yl] amide] registered an inhibition at 10 µM against NA transporter of 91%.
On the same count and under the same terms, in the case of `O=C(NC1CCCC1)c1noc2c1CN(C(=O)COc1ccc(Cl)cc1)CC2` [Example 81, 5-[2-(4-chlorophenoxy)-acetyl]-4,5,6,7-tetrahydro-isoxazolo[4,5-c]pyridine-3-carboxylic acid cyclopentyl amide] it was 68%; in that of `CCOC(=O)CCNC(=O)c1noc2c1CN(C(=O)c1c(F)ccc(C)c1F)CC2` [Example 111, 3-{[5-(2,6-difluoro-3-methyl-benzoyl)-4,5,6,7-tetrahydro-isoxazolo[4,5-c]pyridine-3-carbonyl]-amino}-propionic acid ethyl ester], 66%.
As for `CCOC(=O)N1CCC(NC(=O)c2noc3c2CN(S(=O)(=O)c2ccc(F)cc2)CC3)CC1` [Example 43], the “NA Uptake (rat), 10 μM, % inhibition” value on NA transporter was found to be 63%.
At NA transporter, `CC(CNC(=O)c1noc2c1CN(S(=O)(=O)c1cccs1)CC2)c1ccccc1` (stereo not drawn) [Example 104, 5-(thiophene-2-sulfonyl)-4,5,6,7-tetrahydro-isoxazolo[4,5-c]pyridine-3-carboxylic acid (2-phenyl-propyl) amide] gave an inhibition at 10 µM of 77%.
Same read-out and setting: in the case of `O=C(c1noc2c1CN(S(=O)(=O)c1ccc(OC(F)(F)F)cc1)CC2)N(CCc1ccccc1)Cc1ccccc1` [Example 32, 5-(4-trifluoromethoxy-benzenesulfonyl)-4,5,6,7-tetrahydro-isoxazolo[4,5-c]pyridine-3-carboxylic acid benzyl-phenethyl amide] it was 82%; in that of `CN(C)S(=O)(=O)N1CCc2onc(C(=O)NCCc3ccc(Cl)c(Cl)c3)c2C1` [Example 122, 5-dimethylsulfamoyl-4,5,6,7-tetrahydro-isoxazolo[4,5-c]pyridine-3-carboxylic acid [2-(3,4-dichloro-phenyl)-ethyl] amide], 63%; in that of `O=C(NCCN1CCOCC1)c1noc2c1CN(S(=O)(=O)c1cc(Cl)c(Cl)s1)CC2` [Example 63, 5-(4,5-dichloro-thiophene-2-sulfonyl)-4,5,6,7-tetrahydro-isoxazolo[4,5-c]pyridine-3-carboxylic acid (2-morpholin-4-yl-ethyl) amide], 77%.
On to `O=C(NCCc1ccccc1)c1noc2c1CN(C(=S)Nc1c(F)c(F)c(F)c(F)c1F)CC2` [Example 131, 5-pentafluorophenylthiocarbamoyl-4,5,6,7-tetrahydro-isoxazolo[4,5-c]pyridine-3-carboxylic acid phenethyl amide], for which the “NA Uptake (rat), 10 μM, % inhibition” value at NA transporter is 73%.
At NA transporter, `O=C(NCCCc1ccccc1)c1noc2c1CN(S(=O)(=O)c1ccc(F)cc1)CC2` [Example 35, 5-(4-fluoro-benzenesulfonyl)-4,5,6,7-tetrahydro-isoxazolo[4,5-c]pyridine-3-carboxylic acid (3-phenyl-propyl) amide] gave an inhibition at 10 µM of 73%.
The compound `O=C(Cc1ccc(F)c(F)c1)N1CCN(C(=O)c2noc3c2CN(S(=O)(=O)c2ccc(F)cc2)CC3)CC1` [Example 48, 2-(3,4-difluoro-phenyl)-1-{4-[5-(4-fluoro-benzenesulfonyl)-4,5,6,7-tetrahydro-isoxazolo[4,5-c]pyridine-3-carbonyl]-piperazin-1-yl}-ethanone] registered an inhibition at 10 µM on NA transporter of 61%.
Still for that read-out and setting: the same measure for `CC(NC(=S)N1CCc2onc(C(=O)NCCc3ccccc3)c2C1)c1ccccc1` (stereo not drawn) [Example 132, 5-(1-phenyl-ethylthiocarbamoyl)-4,5,6,7-tetrahydro-isoxazolo[4,5-c]pyridine-3-carboxylic acid phenethyl amide]: 76%; for `O=C(NC1CCCC1)c1noc2c1CN(C(=O)C=Cc1ccccc1)CC2` [Example 44, 5-(3-phenyl-acryloyl)-4,5,6,7-tetrahydro-isoxazolo[4,5-c]pyridine-3-carboxylic acid cyclopentyl amide]: 76%.
Regarding `COc1ccc(Cl)cc1NC(=O)N1CCc2onc(C(=O)NCC(C)C)c2C1` [Example 24, 6,7-dihydro-4H-isoxazolo[4,5-c]pyridine-3,5-dicarboxylic acid 5-[(5-chloro-2-methoxyphenyl) amide] 3-(isobutyl-amide)], the “NA Uptake (rat), 10 μM, % inhibition” value at NA transporter was determined as 51%.
`O=C(NCCN1CCCC1)c1noc2c1CN(S(=O)(=O)c1cccc(Cl)c1)CC2` [Example 118, 5-(3-chloro-benzenesulfonyl)-4,5,6,7-tetrahydro-isoxazolo[4,5-c]pyridine-3-carboxylic acid (2-pyrrolidin-1-yl-ethyl) amide]: testing at 10 µM on NA transporter gave an inhibition of 63%.
